Target: T1, MEK1 (Homo sapiens, UniProt Q02750)
T1 construct: purchased SignalChem M02-14H
Assay: MEK1 kinase cascade assay (ADP-Glo), inhibition of MEK1 kinase activity
Type: biochemical
Settings: 25 nM BRAF, 6.25 nM MEK1, 0.5 μM ERK, 1 mM ATP; 20 min preincubation, 1 hr at 25° C.; read-out: BRAF ADP Glo kinase assay V3 (IC50)
Text: Protein expression and purification: BRAF (445-723) with N-term His-tag and C-term StrepII tag was expressed using the Expi293 system (ThermoFisher) and purified using Strep-Tactin® XT-Superflow (IBA) chromatography. ERK1 (full-length) with N-term His-tag was expressed in Rosetta DE3 cells (Millipore) and purified using HisTrap HP (Cytiva) and Superdex 200 (Cytiva) column chromatography. Full-length MEK1 for TR-FRET assays with N-term His-tag was expressed in BL21DE3 cells (ThermoFisher) and purified using HisTrap HP (Cytiva) and Superdex 200 (Cytiva) column chromatography.
Efficacy of exemplary compounds in inhibition of MEK1 kinase activity: The effect of compound MEK1 inhibition was evaluated using an ADP detection system for kinases, such as the ADP-Glo assay (Promega). The MEK1 kinase cascade assay consisted of 9 μL reaction volumes in 384-well white, opaque Optiplates (PerkinElmer). Compounds were prepared from DMSO stocks in assay buffer (10 mM HEPES pH 7.5, 5 mM MgCl2, 2 mM CHAPS, and 1 mM DTT) and preincubated with 25 nM BRAF for 20 mins at 25° C. prior to addition of 6.25 nM MEK1/0.5 μM ERK/1 mM ATP premix to initiate the kinase reaction. Both BRAF and ERK1 were produced in-house, and MEK1 was purchased from SignalChem (M02-14H). DMSO was kept constant at a final concentration of 1%. After a 1 hr incubation at 25° C., conversion of ATP to ADP was detected using ADP-Glo™ reagents according to the manufacturer's protocol. Luminescence was measured using a CLARIOstar microplate reader (BMG). Percent (%) Inhibition was calculated by normalizing to DMSO control (max) and 1 μM Trametinib (min). % inhibition as a function of compound concentration from 2 replicate wells was fit with a 4-parameter logistic curve equation using GraphPad Prism or CDD Vault to derive IC50 values.
In this table, for the BRAF ADP Glo kinase assay, “A” indicates IC50 of less than 5 nM; “B” indicates IC50 of between 5 nM to 50 nM; and “C” indicates IC50 of between 50 nM to 500 nM. “D” indicates IC50 of greater than 500 nM. For the BRAF-MEK TR-FRET assay, “A” indicates EC50 of less than 50 nM; “B” indicates EC50 of between 50 nM to 200 nM; and “C” indicates EC50 of between 200 nM to 1 μM. “D′” indicates EC50 of greater than 1 μM. For the AlphaLisa P-ERK assay, “A” indicates IC50 of less than 1 nM; “B” indicates IC50 of between 1 nM to 10 nM; and “C” indicates IC50 of between 10 nM to 100 nM. “D” indicates IC50 of greater than 100 nM. For the cell viability assay, “A” indicates IC50 of less than 1 nM; “B” indicates IC50 of between 1 nM to 10 nM; and “C” indicates IC50 of between 10 nM to 100 nM. “D” indicates IC50 of greater than 100 nM.

T1 sequence (Q02750 whole entry): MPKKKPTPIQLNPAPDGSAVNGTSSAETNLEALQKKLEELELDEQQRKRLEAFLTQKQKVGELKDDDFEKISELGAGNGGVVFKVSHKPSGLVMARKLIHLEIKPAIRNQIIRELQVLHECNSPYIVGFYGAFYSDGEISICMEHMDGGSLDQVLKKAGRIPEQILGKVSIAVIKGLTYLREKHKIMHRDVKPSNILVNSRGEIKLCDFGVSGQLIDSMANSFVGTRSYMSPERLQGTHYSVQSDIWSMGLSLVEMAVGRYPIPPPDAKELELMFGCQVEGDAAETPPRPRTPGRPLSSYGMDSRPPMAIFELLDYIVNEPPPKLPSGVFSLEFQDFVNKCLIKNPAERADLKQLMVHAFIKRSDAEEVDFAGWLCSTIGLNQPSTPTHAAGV
T1 sequence (P15056 445-723 partner limits assumed): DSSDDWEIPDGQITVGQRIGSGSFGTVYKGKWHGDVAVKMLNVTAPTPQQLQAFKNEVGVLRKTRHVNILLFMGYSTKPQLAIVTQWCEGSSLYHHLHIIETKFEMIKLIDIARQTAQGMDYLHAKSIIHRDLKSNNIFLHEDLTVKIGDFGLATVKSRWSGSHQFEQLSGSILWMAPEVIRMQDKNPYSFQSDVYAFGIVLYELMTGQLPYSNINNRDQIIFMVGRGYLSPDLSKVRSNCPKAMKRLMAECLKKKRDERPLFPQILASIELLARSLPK

Question: For O=C1Oc2cc(Oc3cccnn3)ccc2CN1Cc1cccc(N2CCOC2=O)c1F [Compound 26, 3-{[2-fluoro-3-(2-oxo-1,3-oxazolidin-3-yl)phenyl]methyl}-7-(3-pyridazinyloxy)-3,4-dihydro-2H-1,3-benzoxazin-2-one], which IC50 is on record?
Answer: 50 to 500 nM

Question: Which IC50 does the source give for CNS(=O)(=O)Nc1cccc(CN2C(=O)Oc3cc(Oc4ncco4)c(F)cc3[C@@H]2C)c1F (single isomer, unassigned) [Compound 84, (S)-6-fluoro-3-({2-fluoro-3-(methylsulfamoyl)amino]phenyl}methyl)-4-methyl-7-(1,3-oxazol-2-yloxy)-3,4-dihydro-2H-1,3-benzoxazin-2-one or (R)-6-fluoro-3-({2-fluoro-3-(methylsulfamoyl)amino]phenyl}methyl)-4-methyl-7-(1,3-oxazol-2-yloxy)-3,4-dihydro-2H-1,3-benzoxazin-2-one] here?
Answer: 5 to 50 nM

Question: For O=C1Oc2cc(Oc3cccnc3)ccc2CN1Cc1cccc(NS(=O)(=O)C2CC2)c1F [Compound 60, (cyclopropylsulfonyl)(2-fluoro-3-{[2-oxo-7-(3-pyridyloxy)-3,4-dihydro-2H-1,3-benzoxazin-3-yl]methyl}phenyl)amine], which IC50 is on record?
Answer: 50 to 500 nM

Question: CNS(=O)(=O)Nc1cccc(CN2Cc3ccc(Oc4ncccn4)cc3OC2=O)c1F [Compound 157, 3-({2-fluoro-3-[(methylsulfamoyl)amino]phenyl}methyl)-7-(pyrimidin-2-yloxy)-3,4-dihydro-2H-1,3-benzoxazin-2-one] was tested. Which IC50 did it give?
Answer: 5 to 50 nM

Question: CNS(=O)(=O)Nc1cccc(CN2C(=O)Oc3c(ccc(Oc4ncccn4)c3F)C23COC3)c1F [Compound 88] was tested. Which IC50 did it give?
Answer: > 500 nM

Question: CNS(=O)(=O)Nc1nccc(CN2C(=O)Oc3cc(Oc4ncco4)cnc3[C@@H]2C)c1F (stereo in doubt) [Compound 190, 3-{[3-fluoro-2-(methylaminosulfonylamino)-4-pyridyl]methyl}-4-methyl-7-(1,3-oxazol-2-yloxy)-3,4-dihydro-2H-1-oxa-3,5-diazanaphthalen-2-one] was tested. Which IC50 did it give?
Answer: 5 to 50 nM

Question: How did the IC50 turn out when CNS(=O)(=O)Nc1cccc(CN2C(=O)Oc3c(ccc(Oc4ncccn4)c3F)[C@@H]2C)c1F (single isomer, unassigned) [Compound 92, (S)-8-fluoro-3-({2-fluoro-3-(methylsulfamoyl)amino]phenyl}methyl)-4-methyl-7-(pyrimidin-2-yloxy)-3,4-dihydro-2H-1,3-benzoxazin-2-one or (R)-8-fluoro-3-({2-fluoro-3-(methylsulfamoyl)amino]phenyl}methyl)-4-methyl-7-(pyrimidin-2-yloxy)-3,4-dihydro-2H-1,3-benzoxazin-2-one] was run?
Answer: 5 to 50 nM

Question: How did the IC50 turn out when CNS(=O)(=O)Nc1cc(F)cc(CN2C(=O)Oc3cc(Oc4ncco4)ccc3C23CCC3)c1F [Compound 195, 3-{[2,5-difluoro-3-(methylaminosulfonylamino)phenyl]methyl}-7-(1,3-oxazol-2-yloxy)-2H,3H-spiro[1,3-benzoxazine-4,1′-cyclobutan]-2-one] was run?
Answer: 50 to 500 nM

Question: How did the IC50 turn out when CNS(=O)(=O)Nc1cccc(CN2C(=O)Oc3c(ccc(Oc4ncccn4)c3F)[C@H]2C)c1F (single isomer, unassigned) [Compound 93, (R)-8-fluoro-3-({2-fluoro-3-(methylsulfamoyl)amino]phenyl}methyl)-4-methyl-7-(pyrimidin-2-yloxy)-3,4-dihydro-2H-1,3-benzoxazin-2-one or (S)-8-fluoro-3-({2-fluoro-3-(methylsulfamoyl)amino]phenyl}methyl)-4-methyl-7-(pyrimidin-2-yloxy)-3,4-dihydro-2H-1,3-benzoxazin-2-one] was run?
Answer: 5 to 50 nM

Question: Which IC50 does the source give for CNS(=O)(=O)Nc1cccc(CN2Cc3ccc(Oc4cccnc4)cc3OC2=O)c1F [Compound 61, 3-{[2-fluoro-3-(methylaminosulfonylamino)phenyl]methyl}-7-(3-pyridyloxy)-3,4-dihydro-2H-1,3-benzoxazin-2-one] here?
Answer: 5 to 50 nM

Question: How did the IC50 turn out when O=C1Oc2cc(Oc3ncco3)c(F)cc2C2(COC2)N1Cc1ccnc(NS(=O)(=O)C2CC2)c1F [Compound 172, N-(3-fluoro-4-((6-fluoro-7-(oxazol-2-yloxy)-2-oxospiro[benzo[e][1,3]oxazine-4,3′-oxetan]-3(2H)-yl)methyl)pyridin-2-yl)cyclopropanesulfonamide] was run?
Answer: 50 to 500 nM

Question: For CNS(=O)(=O)Nc1cccc(CN2Cc3cc(C)c(Oc4ncccn4)cc3OC2=O)c1F [Compound 111, 3-({2-fluoro-3-[(methylsulfamoyl)amino]phenyl}methyl)-6-methyl-7-(pyrimidin-2-yloxy)-3,4-dihydro-2H-1,3-benzoxazin-2-one], which IC50 is on record?
Answer: 5 to 50 nM

Question: CNS(=O)(=O)Nc1cccc(CN2C(=O)Oc3cc(Oc4ccccn4)ccc3C23COC3)c1F [Compound 50, 3-({2-fluoro-3-[(methylsulfamoyl)amino]phenyl}methyl)-7-(pyridin-2-yloxy)-2,3-dihydrospiro[1,3-benzoxazine-4,3′-oxetan]-2-one] was tested. Which IC50 did it give?
Answer: 5 to 50 nM

Question: Which IC50 does the source give for C[C@@H]1c2c(F)cc(Oc3cccnn3)cc2OC(=O)N1Cc1cccc(NS(=O)(=O)C2CC2)c1F (single isomer, unassigned) [Compound 54] here?
Answer: 50 to 500 nM

Question: O=C1Oc2cc(Oc3cnccn3)ccc2C2(COC2)N1Cc1cccc(NS(=O)(=O)C2CC2)c1F [Compound 69, N-(2-fluoro-3-{[2-oxo-7-(pyrazin-2-yloxy)-2,3-dihydrospiro[1,3-benzoxazine-4,3′-oxetan]-3-yl]methyl}phenyl)cyclopropanesulfonamide] was tested. Which IC50 did it give?
Answer: 50 to 500 nM

Question: For CN(C)C(=O)Oc1ccc2c(c1)OC(=O)N(Cc1cccc(N3CCOC3=O)c1F)C2 [Compound 27, dimethylamino-3-{[2-fluoro-3-(2-oxo-1,3-oxazolidin-3-yl)phenyl]methyl}-2-oxo-3,4-dihydro-2H-1,3-benzoxazin-7-ylformylate], which IC50 is on record?
Answer: > 500 nM

Question: For CNS(=O)(=O)Nc1cccc(CN2Cc3ccc(OC4COC4)cc3OC2=O)c1F [Compound 98, 3-{[2-fluoro-3-(methylaminosulfonylamino)phenyl]methyl}-7-(3-oxetanyloxy)-3,4-dihydro-2H-1,3-benzoxazin-2-one], which IC50 is on record?
Answer: > 500 nM

Question: For CNS(=O)(=O)Nc1cccc(CN2C(=O)Oc3cc(Oc4cnccn4)ccc3C23COC3)c1F [Compound 70, 3-({2-fluoro-3-[(methylsulfamoyl)amino]phenyl}methyl)-7-(pyrazin-2-yloxy)-2,3-dihydrospiro[1,3-benzoxazine-4,3′-oxetan]-2-one], which IC50 is on record?
Answer: 50 to 500 nM

Question: CNS(=O)(=O)Nc1ccc(F)c(CN2C(=O)Oc3cc(Oc4cccnn4)ccc3C23CCC3)c1F [Compound 197, 3-{[2,6-difluoro-3-(methylaminosulfonylamino)phenyl]methyl}-7-(3-pyridazinyloxy)-2H,3H-spiro[1,3-benzoxazine-4,1′-cyclobutan]-2-one] was tested. Which IC50 did it give?
Answer: 50 to 500 nM

Question: How did the IC50 turn out when CNS(=O)(=O)Nc1nccc(CN2C(=O)Oc3cc(Oc4ncc(C)o4)ccc3C23CCC3)c1F [Compound 180, 3-{[3-fluoro-2-(methylaminosulfonylamino)-4-pyridyl]methyl}-7-(5-methyl-1,3-oxazol-2-yloxy)-2H,3H-spiro[1,3-benzoxazine-4,1′-cyclobutan]-2-one] was run?
Answer: 5 to 50 nM

Question: CNS(=O)(=O)Cc1cccc(CN2C(=O)Oc3cc(OC(=O)N(C)C)ccc3C23COC3)c1F [Compound 47, 3-({2-fluoro-3-[(methylsulfamoyl)methyl]phenyl}methyl)-2-oxo-2,3-dihydrospiro[1,3-benzoxazine-4,3′-oxetan]-7-yl N,N-dimethylcarbamate] was tested. Which IC50 did it give?
Answer: 50 to 500 nM

Question: With CNS(=O)(=O)Cc1cccc(CN2C(=O)Oc3cc(Oc4cccnn4)ccc3C23COC3)c1F [Compound 46, 1-(2-fluoro-3-{[2-oxo-7-(pyridazin-3-yloxy)-2,3-dihydrospiro[1,3-benzoxazine-4,3′-oxetan]-3-yl]methyl}phenyl)-N-methylmethanesulfonamide] as the molecule, how does the IC50 read?
Answer: 50 to 500 nM

From patent US20260297105A1, “RAF-MEK PROTEIN COMPLEX MODULATORS AND METHODS OF USE THEREOF” (GANDEEVA THERAPEUTICS, INC., priority 2023, published 2026)
